Experimental data taken from ChEMBL document CHEMBL1145976, “Non-peptide angiotensin II receptor antagonists: chemical feature based pharmacophore identification” (J Med Chem, 2003).

molecular target: T1, Angiotensin II receptor (AT-1) type-1 (Rattus norvegicus, UniProt P29089+P25095); experiment: Inhibitory concentration that gives 50% displacement of specific binding at labeled angiotensin II type 1 receptor in rat adrenal cortical membranes.; type: cell membranes, Membrane
T1 sequence (P29089 whole entry): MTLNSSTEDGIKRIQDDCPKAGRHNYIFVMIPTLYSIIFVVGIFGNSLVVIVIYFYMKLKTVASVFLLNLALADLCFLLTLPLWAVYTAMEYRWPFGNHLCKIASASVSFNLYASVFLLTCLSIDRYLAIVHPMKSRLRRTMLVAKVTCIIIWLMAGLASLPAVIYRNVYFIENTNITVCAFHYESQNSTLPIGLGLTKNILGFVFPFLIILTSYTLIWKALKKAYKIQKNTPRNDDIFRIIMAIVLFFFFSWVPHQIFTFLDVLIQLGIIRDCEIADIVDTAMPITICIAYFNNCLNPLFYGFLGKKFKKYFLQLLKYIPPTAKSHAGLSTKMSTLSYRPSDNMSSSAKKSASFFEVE
T1 sequence (P25095 whole entry): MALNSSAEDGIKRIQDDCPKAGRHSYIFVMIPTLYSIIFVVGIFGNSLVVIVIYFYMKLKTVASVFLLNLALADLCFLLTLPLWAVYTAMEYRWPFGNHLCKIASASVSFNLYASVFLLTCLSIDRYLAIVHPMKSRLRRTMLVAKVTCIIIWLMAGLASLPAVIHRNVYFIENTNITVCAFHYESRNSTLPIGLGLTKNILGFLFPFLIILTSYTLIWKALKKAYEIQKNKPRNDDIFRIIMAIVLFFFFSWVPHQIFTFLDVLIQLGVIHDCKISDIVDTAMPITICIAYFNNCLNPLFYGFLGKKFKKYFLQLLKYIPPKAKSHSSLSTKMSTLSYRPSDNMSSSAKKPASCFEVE

IC50 [nM]	SMILES
13000	CCCCc1nc(Cl)c(CC(=O)O)n1Cc1ccc(CC(=O)O)cc1
500	CCCCc1nc(Cl)c(CC(=O)OC)n1Cc1ccc(NC(=O)c2ccccc2NS(=O)(=O)C(F)(F)F)cc1
2800	CCCCc1nc(Cl)c(COC)n1Cc1ccc(NC(=O)Cc2ccccc2CC(=O)O)cc1
